Laboratory results taken from ChEMBL document CHEMBL4049438, “Discovery and Optimization of Isoquinoline Ethyl Ureas as Antibacterial Agents” (J Med Chem, 2017).
≈ marks a conversion by molar mass, not a printed value.

Tests used:
[1] = system: Staphylococcus aureus; experiment: Antibacterial activity against methicillin-sensitive Staphylococcus aureus A-1178 infected in neutropenic mouse thigh infection model assessed as decrease in bacterial load in thighs administered po every 5.5 hrs for 4 times measured after 24 hrs; assay type: functional, organism-based
[2] = target: DNA gyrase (Staphylococcus aureus, UniProt P0A0K8+P20831)
[3] = system: Escherichia coli; experiment: Antibacterial activity against TolC deficient Escherichia coli by broth microdilution method; assay type: functional
[4] = Inhibition of Escherichia coli DNA gyrase subunit GyrA/GyrB R136H mutant supercoiling activity expressed in Escherichia coli BL21 (DE3) using relaxed pBR322 DNA as substrate after 1 hr mins by agarose gel electrophoresis
[5] = Tmax in Wistar rat at 2 mg/kg, po administered as suspension up to 24 hrs by LC-MS/MS analysis; assay type: ADME, organism-based; conditions: in vivo
[6] = system: Moraxella catarrhalis; experiment: Antibacterial activity against Moraxella catarrhalis A-894 by broth microdilution method; assay type: functional
[7] = Inhibition of Escherichia coli N-terminal His6-tagged DNA gyrase subunit GyrA/GyrB supercoiling activity expressed in Escherichia coli BL21 (DE3) using relaxed pBR322 DNA as substrate after 1 hr by agarose gel electrophoresis
[8] = system: Staphylococcus aureus; experiment: Antibacterial activity against methicillin-sensitive Staphylococcus aureus A-1178 infected in neutropenic mouse assessed as change in bacterial burden in thighs at 30 mg/kg, po administered every 2.75 hrs for 2 times measured 6.5 hrs post infection; assay type: functional
[9] = Protein binding to mouse plasma by rapid equilibrium dialysis method; assay type: ADME, cell-free; conditions: read-out: PPB (converted)
[10] = AUC in Wistar rat at 2 mg/kg, po administered as suspension up to 24 hrs by LC-MS/MS analysis; assay type: ADME, organism-based; set-up: dose 2 mg/kg, time < 24 hr, route oral; conditions: in vivo
[11] = system: Enterococcus faecium; experiment: Antibacterial activity against vancomycin/fluoroquinolone-resistant Enterococcus faecium A-949 harboring topoisomerase gyrA E88K mutant/parC S80R mutant by broth microdilution method; assay type: functional
[12] = Solubility of compound in citrate buffer at pH 4; assay type: physicochemical
[13] = Inhibition of Streptococcus pneumoniae DNA gyrase subunit GyrA/GyrB supercoiling activity expressed in Escherichia coli BL21 (DE3) using relaxed pBR322 DNA as substrate after 1 hr mins by agarose gel electrophoresis
[14] = target: hERG (KCNH2) (Homo sapiens, UniProt Q12809); experiment: Inhibition of human ERG expressed in CHO cells at 10 uM after 3 mins at -80 mV holding potential by Qpatch assay; assay type: cell-based; conditions: CHO cells expressing human ERG
[15] = system: Streptococcus pneumoniae; experiment: Antibacterial activity against Streptococcus pneumoniae ATCC 49619 by broth microdilution method; assay type: functional
[16] = system: Haemophilus influenzae; experiment: Antibacterial activity against Haemophilus influenzae A-921 by broth microdilution method; assay type: functional
[17] = Inhibition of Staphylococcus aureus topoisomerase 4 subunit ParC/ParE relaxation expressed in Escherichia coli BL21 (DE3) using supercoiled pBR322 DNA as substrate after 1 hr by agarose gel electrophoresis
[18] = system: Staphylococcus aureus; experiment: Antibacterial activity against methicillin-sensitive Staphylococcus aureus A-1178 by broth microdilution method; assay type: functional
[19] = Half life in Wistar rat at 0.5 mg/kg, iv administered as solution up to 24 hrs by LC-MS/MS analysis; assay type: ADME, organism-based; conditions: in vivo
[20] = Inhibition of Haemophilus influenzae DNA topoisomerase 4 subunit ParC/ParE relaxation expressed in Escherichia coli BL21 (DE3) using supercoiled pBR322 DNA as substrate after 1 hr mins by agarose gel electrophoresis
[21] = Inhibition of fluoroquinolone-resistant Staphylococcus aureus clinical isolate DNA gyrase subunit GyrB/GyrA S84L mutant supercoiling activity using relaxed pBR322 DNA as substrate after 1 hr by agarose gel electrophoresis
[22] = Inhibition of Escherichia coli DNA topoisomerase 4 subunit ParC/ParE relaxation expressed in Escherichia coli BL21 (DE3) using supercoiled pBR322 DNA as substrate after 1 hr by agarose gel electrophoresis
[23] = AUC in mouse at 30 mg/kg, po after 24 hrs by LC-MS/MS analysis; assay type: ADME, organism-based; set-up: time < 24 hr, dose 30 mg/kg, route oral; conditions: in vivo
[24] = target: DNA topoisomerase 2-alpha (Homo sapiens, UniProt P11388); experiment: Inhibition of human DNA topoisomerase 2-alpha
[25] = system: Enterococcus faecalis; experiment: Antibacterial activity against Enterococcus faecalis ATCC 29212 by broth microdilution method; assay type: functional
[26] = Inhibition of Streptococcus pneumoniae DNA topoisomerase 4 subunit ParC/ParE relaxation expressed in Escherichia coli BL21 (DE3) using supercoiled pBR322 DNA as substrate after 1 hr mins by agarose gel electrophoresis
[27] = Solubility of compound in phosphate buffer at pH 7; assay type: physicochemical
[28] = system: Staphylococcus aureus; experiment: Antibacterial activity against methicillin-sensitive Staphylococcus aureus A-1178 infected in neutropenic mouse assessed as change in bacterial burden in thighs at 10 mg/kg, po administered every 2.75 hrs for 2 times measured 6.5 hrs post infection; assay type: functional
[29] = Cmax in Wistar rat at 2 mg/kg, po administered as suspension up to 24 hrs by LC-MS/MS analysis; assay type: ADME, organism-based; set-up: dose 2 mg/kg, route oral; conditions: in vivo
[30] = AUC in Wistar rat at 0.5 mg/kg, iv administered as solution up to 24 hrs by LC-MS/MS analysis; assay type: ADME, organism-based; set-up: dose 0.5 mg/kg, time < 24 hr, route intravenous; conditions: in vivo
[31] = Volume of distribution in steady state in Wistar rat at 0.5 mg/kg, iv administered as solution up to 24 hrs by LC-MS/MS analysis; assay type: ADME, organism-based; conditions: in vivo, read-out: Vdss
[32] = system: Staphylococcus aureus; experiment: Antibacterial activity against Staphylococcus aureus ATCC 29213 by broth microdilution method; assay type: functional
[33] = system: Streptococcus pneumoniae; experiment: Antibacterial activity against fluoroquinolone-resistant Streptococcus pneumoniae A-70 harboring topoisomerase gyrA S81F mutant/parc S79F mutant/parE I440V mutant by broth microdilution method; assay type: functional
[34] = Octanol-phosphate buffer partition coefficient, logD of compound at pH 7.4 by LC/UV analysis; assay type: physicochemical
[35] = system: Streptococcus pyogenes; experiment: Antibacterial activity against Streptococcus pyogenes ATCC 19615 by broth microdilution method; assay type: functional
[36] = system: Escherichia coli; experiment: Antibacterial activity against Escherichia coli ATCC 25922 by broth microdilution method; assay type: functional
[37] = Clearance in Wistar rat at 0.5 mg/kg, iv administered as solution up to 24 hrs by LC-MS/MS analysis; assay type: ADME, organism-based; conditions: in vivo
[38] = system: Mus musculus; experiment: Unbound AUC in mouse at 30 mg/kg, po after 24 hrs by LC-MS/MS analysis; assay type: ADME, organism-based; conditions: in vivo
[39] = Oral bioavailability in Wistar rat at 2 mg/kg administered as suspension up to 24 hrs by LC-MS/MS analysis; assay type: ADME, organism-based; conditions: in vivo
[40] = system: Staphylococcus aureus; experiment: Antibacterial activity against methicillin/fluoroquinolone-resistant Staphylococcus aureus A-798 harboring topoisomerase gyrA S84L mutant/grlA S80F/Glu84V mutant by broth microdilution method; assay type: functional

Compound: CCNC(=O)Nc1cc2c(-c3ccnc(C)c3)ccc(CNC(=O)OC)c2cn1
- Activity [1]: Dose-dependent effect
- IC50 [2]: 8 nM
- MIC [3]: 1 µg/mL (≈ 2.54 µM)
- IC50 [4]: 125 nM
- Tmax [5]: 15 min
- MIC [6]: 0.5 µg/mL (≈ 1.27 µM)
- IC50 [7]: 30 nM
- Activity [8]: -3.5 deltalog10CFU
- fraction unbound [9]: 0.035
- AUC at 24 h [10]: 319 ng·h/mL
- MIC [11]: 1 µg/mL (≈ 2.54 µM)
- solubility [12]: 340 µg/mL (≈ 864 µM)
- IC50 [13]: 500 nM
- inhibition at 0.05 h, 10 µM [14]: 67%
- MIC [15]: 0.5 µg/mL (≈ 1.27 µM)
- MIC [16]: 2 µg/mL (≈ 5.08 µM)
- IC50 [17]: 2000 nM
- MIC [18]: 0.06 µg/mL (≈ 0.152 µM)
- half-life [19]: 36 min
- IC50 [20]: 2000 nM
- IC50 [21]: < 4 nM
- IC50 [22]: 8000 nM
- AUC at 24 h [23]: 45300 ng·h/mL
- IC50 [24]: > 256000 nM
- MIC [25]: 0.25 µg/mL (≈ 0.635 µM)
- IC50 [26]: 125 nM
- solubility [27]: 20 µg/mL (≈ 50.8 µM)
- Activity [28]: -2.5 deltalog10CFU
- Cmax [29]: 287 ng/mL
- AUC at 24 h [30]: 261 ng·h/mL
- Vd [31]: 0.65 L/kg
- MIC [32]: 0.06 µg/mL (≈ 0.152 µM)
- MIC [33]: 1 µg/mL (≈ 2.54 µM)
- logD [34]: 3.1
- MIC [35]: 0.5 µg/mL (≈ 1.27 µM)
- MIC [36]: > 16 µg/mL
- clearance [37]: 32 mL/min/kg
- fAUC [38]: 1590 ng·h/mL
- bioavailability [39]: 30%
- MIC [40]: 0.06 µg/mL (≈ 0.152 µM)
